# Data as given in US7855230B2, “Derivatives of 3,3-diphenylpropylamines” (UCB Pharma GmbH, priority 1999, dated 2010).
# Assays:
# [1] = Penetration through human skin, flow through cell; format: in vitro ADME; conditions: human skin 200 μm thick, 32° C., acceptor phosphate buffer pH 6.2
# Experimental: Different compounds of the invention were tested for their ability to penetrate the human skin (200 μm thick) in the “Flow through cell” at 32° C. according to Tiemessen et al. (Acta Pharm. Technol. 1998; 34:99-101). Phosphate buffer (pH 6.2) was used as the acceptor medium. Samples were drawn at different time points and analysed by RP-HPLC with UV detection (220 nm). Permeation profiles were plotted and mean flux rates of different substances were calculated by linear regression analysis.
# guinea-pig ileum = test: Anticholinergic activity in guinea-pig ileum (methacholine-induced contractile response); format: cell-based; conditions: Cavia porcellus; methacholine 0.6 μM, Krebs solution pH 7.4, 32° C.
# Experimental: The compounds were tested for their anticholinergic activity in a standard tissue assay, the guinea-pig ileum. A segment of ileum was obtained from Duncan Hartley guinea-pigs which were scarified by cervical dislocation. The tissue was placed under 1 g tension in a 10 ml bath containing Krebs, solution (pH 7.4, 32° C.) and the concentration-dependent ability of different compounds to reduce the methacholine-induced (0.6 μM) contractile response was recorded.
# [2] = molecular target: T1, human muscarinic M3 receptor (Homo sapiens, UniProt P20309); test: [3H]-methylscopolamine binding to recombinant human M3 receptors; conditions: BSR-M3H cell membranes, 60 minutes at 25° C.
# T1 construct: expressed in transfected cells; host or cells: BSR-M3H cells (membrane preparation)
# Experimental: WO 94/11337 discloses that the active metabolite has high affinity to muscarinic receptors in the guinea-pig bladder. Different compounds of the present invention were tested in a well established standardized assay, measuring the binding of [^3H]-methylscopolamine to recombinant human M3 receptors. BSR-M3H cells transfected with a plasmid encoding the human muscarinic M3 receptor were used to prepare membranes in modified Tris-HCl pH 7.4 buffer using standard techniques. An aliquot of the membrane preparation was incubated with [^3H]-methylscopolamine in the presence or absence of different concentrations of several compounds of the invention for 60 minutes at 25° C. Nonspecific binding was estimated in the presence of 1 μM atropine. Membranes were filtered and washed three times and the filters were counted to determine the amount of [^3H]-methylscopolamine specifically bound.
# [3] = test system: urinary bladder over the effect on the salivation; conditions: preclinical, Nilvebrant et al. 1997; cited from earlier work
# [4] = Incubation of labelled substrates: metabolic degradation to the carboxylic acid; format: in vitro ADME, human; conditions: 3 hrs at 37.0° C., 40 μM; compared with unlabelled hydroxy metabolite
# Experimental: The metabolic degradation of the unlabelled hydroxy metabolite (i.e. Intermediate D) and the deuteriated hydroxy-metabolite (Intermediate d2B) were compared in vitro. Used were the respective enantiomers and the racemates.
# The hydroxy metabolite and the deuteriated hydroxy-metabolite expressed significant differences in the rate to produce the corresponding carboxylic acid.
# The measurement was performed with an incubation time of 3 hrs at 37.0° C. in a concentration of 40 μM.
# T1 sequence (P20309 whole entry): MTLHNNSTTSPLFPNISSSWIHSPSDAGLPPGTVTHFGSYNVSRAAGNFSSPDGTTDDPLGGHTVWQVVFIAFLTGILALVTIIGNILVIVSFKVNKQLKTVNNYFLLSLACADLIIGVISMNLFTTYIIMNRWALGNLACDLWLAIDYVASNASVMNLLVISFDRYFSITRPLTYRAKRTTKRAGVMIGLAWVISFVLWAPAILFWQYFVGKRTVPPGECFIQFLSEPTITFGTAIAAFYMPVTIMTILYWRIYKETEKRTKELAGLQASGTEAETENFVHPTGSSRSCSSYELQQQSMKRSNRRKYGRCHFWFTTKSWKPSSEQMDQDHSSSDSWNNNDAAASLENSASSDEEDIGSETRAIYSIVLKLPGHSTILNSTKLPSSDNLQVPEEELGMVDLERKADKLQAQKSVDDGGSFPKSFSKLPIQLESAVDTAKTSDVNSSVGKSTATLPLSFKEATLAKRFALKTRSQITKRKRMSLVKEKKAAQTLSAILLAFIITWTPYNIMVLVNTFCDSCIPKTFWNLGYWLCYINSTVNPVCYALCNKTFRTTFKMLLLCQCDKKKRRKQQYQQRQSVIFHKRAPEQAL
IC50 (guinea-pig ileum) [nM],IC50 [2] [nM],SMILES,other results
–,–,"CC(C)C(=O)OCc1ccc(OC(=O)C(C)C)c(C(CCN(C(C)C)C(C)C)c2ccccc2)c1 (racemic) [iButO-/-OiBut, (±)-Isobutyric acid 2-(3-diisopropylamino-1-phenylpropyl)-4-isobutyryloxymethylphenyl ester]",Flux rate [1]: 60 μg/cm^2/24 hrs
20,8.7,"CC(C)N(CC[C@H](c1ccccc1)c1cc(CO)ccc1O)C(C)C [(+)HO-/-OH, R-(+)-2-(3-Diisopropylamino-1-phenylpropyl)-4-hydroxymethyl-phenol, reference compound]",–
–,–,"CCC(=O)OCc1ccc(OC(=O)CC)c(C(CCN(C(C)C)C(C)C)c2ccccc2)c1 (racemic) [PropO-/-OProp, (±)-Propionic acid 2-(3-diisopropylamino-1-phenylpropyl)-4-propionyloxymethylphenyl ester]",Flux rate [1]: 70 μg/cm^2/24 hrs
180,172,"CC(C)N(CC[C@H](c1ccccc1)c1cc(CO)ccc1OC(=O)c1ccccc1)C(C)C [(+)HO-/-OBz, R-(+)-Benzoic acid 2-(3-diisopropylamino-1-phenylpropyl)-4-hydroxymethylphenyl ester]",–
220,–,"CC(C)N(CC[C@H](c1ccccc1)c1cc(COC(=O)c2ccccc2)ccc1OC(=O)c1ccccc1)C(C)C [(+)BzO-/-OBz, R-(+)-benzoic acid 4-benzoyloxymethyl-2-(3-diisopropylamino-1-phenylpropyl)-phenyl ester]",–
–,–,"Cc1ccc(O)c([C@H](CCN(C(C)C)C(C)C)c2ccccc2)c1 [tolterodine, Tolterodine]",tissue selectivity in vivo for the urinary bladder over the effect on the salivation [3]: favourable tissue selectivity
–,2400,"CC(C)N(CCC(c1ccccc1)c1cc(COC(=O)c2ccccc2)ccc1OC(=O)c1ccccc1)C(C)C (racemic) [BzO-/-OBz, (±)-Benzoic acid 4-benzoyloxymethyl-2-(3-diisopropylamino-1-phenylpropyl)-phenyl ester]",–
–,–,"CC(C)N(CCC(c1ccccc1)c1cc(CO)ccc1O)C(C)C (racemic) [HO-/-OH, (±)-2-(3-Diisopropylamino-1-phenylpropyl)-4-hydroxymethylphenol, reference compound]",Flux rate [1]: 3 μg/cm^2/24 hrs
680,1300,"CC(C)N(CC[C@@H](c1ccccc1)c1cc(CO)ccc1O)C(C)C [(−)HO-/-OH, S-(−)-2-(3-Diisopropylamino-1-phenylpropyl)-4-hydroxymethyl-phenol, reference compound]",–
–,–,CCN(CC)CC#CCOC(=O)C(O)(c1ccccc1)C1CCCCC1 (centres unmarked) [oxybutynin],tissue selectivity in vivo for the urinary bladder over the effect on the salivation [3]: reversed selectivity
–,–,"CC(C)C(=O)Oc1ccc(CO)cc1C(CCN(C(C)C)C(C)C)c1ccccc1 (racemic) [HO-/-OiBut, (±)-Isobutyric acid 2-(3-diisopropylamino-1-phenylpropyl)-4-hydroxymethylphenyl ester]",Flux rate [1]: 150 μg/cm^2/24 hrs
–,–,"[2H]C([2H])(O)c1ccc(O)c(C(CCN(C(C)C)C(C)C)c2ccccc2)c1 (racemic) [deuteriated hydroxy-metabolite, (±)-2-(3-Diisopropylamino-1-phenylpropyl)-4-hydroxy-[^2H2]methyl-phenol]",decreased velocity of formation of the carboxylic acid [4]: 10%
57,159,"CC(C)C(=O)Oc1ccc(CO)cc1[C@H](CCN(C(C)C)C(C)C)c1ccccc1 [(+)HO-/-OiBut, R-(+)-Isobutyric acid 2-(3-diisopropylamino-1-phenylpropyl)-4-hydroxymethylphenyl ester]",–

SMILES,IC50 (guinea-pig ileum) [nM],IC50 [2] [nM],other results
"CC(=O)OCc1ccc(OC(=O)C(C)C)c(C(CCN(C(C)C)C(C)C)c2ccccc2)c1 (racemic) [AcO-/-OiBut, (±)-Isobutyric acid 4-acetoxymethyl-2-(3-diisopropylamino-1-phenylpropyl)-phenyl ester]",–,3600,–
"CC(=O)OCc1ccc(OC(=O)c2ccccc2)c(C(CCN(C(C)C)C(C)C)c2ccccc2)c1 (racemic) [AcO-/-OBz, (±)-Benzoic acid 2-(3-diisopropylamino-1-phenylpropyl)-4-acetoxymethylphenyl ester]",–,5400,–
"CC(=O)OCc1ccc(OC(=O)C(C)C)c([C@H](CCN(C(C)C)C(C)C)c2ccccc2)c1 [(+)AcO-/-OiBut, R-(+)-isobutyric acid 4-acetoxymethyl-2-(3-diisopropylamino-1-phenylpropyl)-phenyl ester]",240,–,–
